In article PMC8196580, “Identification of Kaurane-Type Diterpenes as Inhibitors of Leishmania Pteridine Reductase I” (Molecules, 2021):
Like-named read-outs stand apart in the source and are kept apart here.

Tests used:
L. major [1] = assay: ChEMBL dataset of pIC50 values against L. major used for the RF model (Table S1); format: cell-based, Leishmania major; further: call rule not given here
L. major [2] = tested on: L. major; parameters: method as in ChEMBL; conditions: ref ChEMBL, cited from earlier work
[3] = Active/Inactive class assigned to the ChEMBL pIC50 value for Random forest model construction, ref ChEMBL
[4] = ChemBL structures with pIC50 values used for Random forest model construction, L. major
[5] = Active/Inactive class assigned to ChemBL structures for Random forest model construction (Table S1)
[6] = ChemBL structures with pIC50 values used for Random forest model construction (Table S1)

Structure (SMILES)	Outcome (L. major [1]; [3])	pIC50 Value (L. major [2]; [4])	Outcome (L. major [1]; [5])	pIC50 Value (L. major [2]; [6])
O=[N+]([O-])c1ccc(-c2nnc(NCc3cn(Cc4ccc(F)cc4)nn3)s2)o1 [CHEMBL1951524]	Inactive	4.67	–	–
c1ccc2c(Nc3ccc(NC4CCCCC4)cc3)c3ccccc3nc2c1 [CHEMBL89171]	–	–	Active	6.26
C[C@@H]1[C@H](O)[C@@H](C)/C=C/C=C/C=C/C=C/C=C/C=C/C=C/[C@H](O[C@@H]2O[C@H](C)[C@@H](O)[C@H](N)[C@@H]2O)C[C@@H]2O[C@](O)(C[C@@H](O)C[C@@H](O)[C@H](O)CC[C@@H](O)C[C@@H](O)CC(=O)O[C@H]1C)C[C@H](O)[C@H]2C(=O)O [CHEMBL267345]	Inactive	3.27	–	–
CCCCCCN(C)c1ccc(Nc2c3ccccc3nc3ccccc23)cc1OC [CHEMBL88682]	–	–	Active	6.22
COc1cccc(-c2nc3ccc([N+](=O)[O-])cc3[nH]2)c1 [CHEMBL2298018]	–	–	Active	5.52
Cc1ccc(-c2nc3ccc([N+](=O)[O-])cc3[nH]2)o1 [CHEMBL2295863]	–	–	Active	5.58
COc1cc(/C=N/NC(N)=S)ccc1OCc1cn(-c2ccc(C(=O)O)cc2)nn1 [CHEMBL4173978]	Active	5.24	–	–
COc1ccc(/C=N/NC(=O)c2ccc(-c3nnc(-c4ccccc4OC)o3)cc2)cc1 [CHEMBL4099467]	Inactive	4.13	–	–
CNc1ccc(Nc2c3ccccc3nc3ccccc23)cc1OC(C)C [CHEMBL439951]	–	–	Active	5.89
Cc1cccc2cc(/C=C/C(=O)c3sccc3Br)c(Cl)nc12 [CHEMBL1940869]	–	–	Active	5.63
Cc1cc(C(=O)/C=C/c2cc3cccc(C)c3nc2Cl)c(C)s1 [CHEMBL1940865]	–	–	Active	5.67
O=C(/C=C/c1ccc(-n2ccnc2)cc1)c1ccccc1Cl [CHEMBL569355]	–	–	Active	5.52
COc1ccccc1-c1nnc(-c2ccc(C(=O)N/N=C/c3ccccc3Cl)cc2)o1 [CHEMBL4088386]	Inactive	4.54	–	–
COc1ccc2c(=O)c(C(=O)O)csc2c1 [CHEMBL1255798]	Inactive	4.00	–	–
Cc1ccc(Nc2ncnc3ccc([N+](=O)[O-])cc23)cc1 [CHEMBL3759143]	Inactive	4.62	–	–
O=C(C(Cl)CCl)N1c2ccccc2Oc2ccccc21 (stereo not shown) [CHEMBL3758248]	Active	5.02	–	–

Structure (SMILES)	Outcome (L. major [1]; [3])	pIC50 Value (L. major [2]; [4])	Outcome (L. major [1]; [5])	pIC50 Value (L. major [2]; [6])
CC(=O)N1c2ccccc2Oc2ccccc21 [CHEMBL2180182]	Inactive	4.00	–	–
COc1c(O)ccc2c1C(=O)C(C)=CC2=O [CHEMBL2071233]	Inactive	4.03	–	–
COc1cc(OC)c2c(C)[n+](-c3ccc(C(C)C)cc3)c(C)cc2c1 [CHEMBL481022]	–	–	Active	5.70
C[C@@H](OP(N)(=O)N(CCCl)CCCl)c1ccc([N+](=O)[O-])cc1 (stereo partly shown) [CHEMBL2158071]	Inactive	4.52	–	–
CC1=C(C(=O)Nc2ccc(C(=O)/C=C/c3cccc([N+](=O)[O-])c3)cc2)C(c2ccc(C)cc2)NC(=S)N1 (stereo not shown) [CHEMBL3786068]	–	–	Active	5.90
O=[N+]([O-])c1ccc2ncnc(Nc3ccccc3Cl)c2c1 [CHEMBL3758623]	Active	5.19	–	–
COC(=O)C1=C(C)NC(C)=C(C(=O)OCCN(C)Cc2ccccc2)C1c1cccc([N+](=O)[O-])c1 (stereo not shown) [CHEMBL1484]	Inactive	4.66	–	–
O=C(CCCl)N1c2ccccc2Oc2ccccc21 [CHEMBL3759988]	Inactive	4.41	–	–
CC1=N[C@H](C)Cc2c(-c3ccccc3)ccc(O)c21 [CHEMBL1275788]	Inactive	4.00	–	–
CC[C@H](CO)Nc1nc(NCc2ccc(Br)cc2)c2ncn(C(C)C)c2n1 [CHEMBL3423090]	Inactive	4.71	–	–
COc1ccc([C@@H]2COc3c(ccc(O)c3CC=C(C)C)C2)c(OC)c1O [CHEMBL501755]	Active	5.10	–	–
CCCC/C=C/C=C/c1nc2cccc(OC)c2n2cccc12 [CHEMBL3260217]	Active	5.24	–	–
CC(=O)C1=C(C)N(C)C(=O)NC1c1ccccc1 (stereo not shown) [CHEMBL3785882]	–	–	Active	5.59
CCCCCCCCCCCCCCCCOP(=O)([O-])OCC[N+](C)(C)C [CHEMBL125]	Inactive	4.44	–	–
CCN(CC)CCCNc1ccc(Nc2c3ccccc3nc3ccccc23)cc1 [CHEMBL89458]	–	–	Active	6.70
COc1cc(C2NC(=O)NC(C)=C2C(C)=O)ccc1O (stereo not shown) [CHEMBL1342564]	–	–	Active	5.59
